Assay results taken from publication PMC9381478, “A context-dependent and disordered ubiquitin-binding motif” (Cellular and Molecular Life Sciences: CMLS, 2022).
Entries after “also recorded” stand apart in the source; their conditions may differ.

Experiments:
ubiquitin [1] = target: T1, ubiquitin (Schizosaccharomyces pombe, UniProt P0CH06); assay: NMR titration of 15N-ubiquitin (1H-15N HSQC chemical shift perturbations); assay type: binding, S. pombe; conditions: for Kd: peptide or protein titrated into 100 µM 15N-ubiquitin, 20 mM NaH2PO4, 150 mM NaCl, 5 mM TCEP, pH 7.5, global fit of CSPs to one-site-binding model
T1 construct: plasmid coding for S. pombe ubiquitin with an N-terminal 6xhistidine-tag, TEV-cleavage site as well as an N-terminal free cysteine; made in house; host or cells: E. coli BL21(DE3)
Description: For interaction of the peptides with ^15N-ubiquitin, the lyophilized peptides were dissolved in MilliQ water and pH adjusted to 7.5. […] For the titrations of ubiquitin with each peptide, except the WT Dss1 peptide, 100 µM ubiquitin in NMR buffer was measured as one end point, and the 1 mM peptide and 100 µM ubiquitin as the other. Then, the peptide sample was titrated into the ubiquitin sample with titration points at 0, 50, 150, 300, 400, 500 and 1000 µM peptide. […] NMR samples were centrifuged 13.000×g for 5 min and transferred to either single-use 5 mm NMR tubes (Bruker) or 3 mm (Shigemi). To prepare NMR samples of ^15 N-labeled ubiquitin with full-length Dss1 and variants, lyophilized proteins were dissolved directly in the NMR buffer. The variants were each dissolved in 510 µL NMR buffer with 100 µM ubiquitin. The concentration of Dss1 in the NMR sample was determined by measuring the absorbance at 280 nm on a ND-1000 NanoDrop spectrophotometer, calibrated with the NMR buffer with 100 µM ubiquitin. The concentration of Dss1 varied between variants, depending on the purification yield. For all titrations, seven points of varying Dss1 concentration were recorded. To prepare NMR samples of ^15N-labeled ubiquitin with Spd1, Spd1 was buffer exchanged to MilliQ using a 3 kDa cut-off Amicon Ultra-0.5 ml centrifugal filter (Merk Millipore), lyophilized and resuspended in NMR buffer with 100 µM ubiquitin. […] For experiments with ubiquitin, 200 µL 1 mM ubiquitin was buffer exchanged to MilliQ water using a 3 kDa cut-off Amicon Ultra-0.5 ml centrifugal filter (Merk Millipore), lyophilized, and subsequently resuspended in 100 µL NMR buffer with 1 mM Dss1 for a final ubiquitin concentration of 2 mM and 1 mM, respectively. All samples were transferred to 3 mm (Shigemi) NMR tubes.
All NMR spectra were recorded on Bruker Avance III HD 600 MHz spectrometer with a Bruker proton-optimized quadruple resonance NMR ‘inverse’ (QCI) cryoprobe, a Bruker Avance III HD 750 MHz spectrometer with a Bruker proton-optimized triple resonance NMR ‘inverse’ (TCI) cryoprobe and a Bruker Avance Neo 800 MHz spectrometer with a Bruker carbon/nitrogen-optimized triple-resonance NMR 'observe' (TXO) cryoprobe. […] All spectra were zero-filled, apodized using cosine bells in all dimensions, Fourier transformed, and the zero-order phase was corrected manually using either nmrDraw, a component of NmrPipe or qMDD if spectra were recorded using non-linear-sampling (NLS). All spectra were analysed using the Analysis software.
The CSPs were fitted to a one-site-binding model using global fit, and the Kd-values are extracted using Eq. 2.2 Δδobs=Δδmax∙Pt+Lt+Kd-Pt+Lt+Kd^2-4Pt∙Lt^1/2/2∙Pt.
Peaks giving rise to large uncertainties in the fit, either due to weak signals or overlap, were removed after a first iteration of fitting, and the fit repeated on the remaining dataset.

ubiquitin [2] = target: T1, ubiquitin; assay: Membrane-bound peptide array probed with Cy5-labeled ubiquitin; assay type: binding, S. pombe; conditions: 15-mer peptides on cellulose membrane, 0.4 µM Cy5-labeled ubiquitin, 1 h, RT, fluorescence at 650 nm, mean of two membranes; compared with Pep1
Description: Two identical membrane-bound peptide arrays, each with 50 peptide spots, were purchased from JPT peptide technologies as PepSpots™ (Germany). Here, peptides are covalently attached to a cellulose membrane with the C-terminal amino acid through a β-alanine. Each peptide spot contained approximately 2.44·10^15 molecules or 4 nmol peptides. For detection of binding, ubiquitin was labeled at the N-terminal free cysteine with Cy5 maleimide fluorophore (GE Healthcare), which has an emission maximum at 666 nm. Ubiquitin or His6-SUMO (50 µL–70 µM) was reduced with 10 times molar excess tris(2-carboxyethyl)phosphine (TCEP), and incubated with one aliquot of 10 µL, 3 mM Cy5 in dimethyl sulfoxide (DMSO) at RT for 2 h. Excess Cy5 was neutralized with 10 µL 14.3 mM βME, and the mixture was separated on a gravity flow Sepharose column (from NanoTemper Monolith Protein Labeling Kit Red-NHS (Amine Reactive)). The column was equilibrated with tris buffered saline with Tween 20 (TBS-T) buffer (20 mM Tris, 150 mM NaCl, 1 mM EDTA, 500 µL/L Tween 20, pH 7). The ubiquitin/SUMO-Cy5 mixture (73.5 µL) was loaded on the column, followed by 426.5 µL TBS-T buffer. To evaluate the concentration of ubiquitin and Cy5, the absorbance at 280 nm and 650 nm of each fraction was measured on a ND-1000 NanoDrop spectrophotometer (Thermo Fischer Scientific). Fractions where the absorbance peaked at both wavelengths simultaneously were pooled and used for the peptide array.
All wash and incubation steps were performed at RT on a rocking table. The membranes were first washed with 25 mL TBS-T buffer two times for 5 min. Next, the membranes were blocked with blocking buffer (TBS-T with 5% (w/v) skim milk powder) for 1 h and washed for 10 min in TBS-T buffer and the background signal at 650 nm acquired using a Chemidoc imager (Bio-Rad). […] After the incubation, the membranes were washed with TBS-T buffer for five times 5 min and the fluorescence signal at 650 nm acquired on the Chemidoc imager. The fluorescent signal was quantified using the image processing software ImageJ. The intensity from each peptide spot was read using the Microarray Profile plugin. The intensities acquired before adding ubiquitin were subtracted from the signals acquired after. Finally, the mean between the corresponding values from the two membranes was calculated and reported as the signal intensity for each peptide.

ubiquitin [3] = conditions: read-out: Kd of known UIM sequence for ubiquitin; cited from earlier work
SUMO [4] = assay: Membrane-bound peptide array probed with Cy5-labeled SUMO; assay type: binding; conditions: 15-mer peptides on cellulose membrane, 0.4 µM Cy5-labeled His6-SUMO, 1 h, RT, fluorescence at 650 nm, mean of two membranes
Description: Two identical membrane-bound peptide arrays, each with 50 peptide spots, were purchased from JPT peptide technologies as PepSpots™ (Germany). Here, peptides are covalently attached to a cellulose membrane with the C-terminal amino acid through a β-alanine. Each peptide spot contained approximately 2.44·10^15 molecules or 4 nmol peptides. For detection of binding, ubiquitin was labeled at the N-terminal free cysteine with Cy5 maleimide fluorophore (GE Healthcare), which has an emission maximum at 666 nm. […] To evaluate the concentration of ubiquitin and Cy5, the absorbance at 280 nm and 650 nm of each fraction was measured on a ND-1000 NanoDrop spectrophotometer (Thermo Fischer Scientific). Fractions where the absorbance peaked at both wavelengths simultaneously were pooled and used for the peptide array.
All wash and incubation steps were performed at RT on a rocking table. […] After the incubation, the membranes were washed with TBS-T buffer for five times 5 min and the fluorescence signal at 650 nm acquired on the Chemidoc imager. The fluorescent signal was quantified using the image processing software ImageJ. The intensity from each peptide spot was read using the Microarray Profile plugin. […] Finally, the mean between the corresponding values from the two membranes was calculated and reported as the signal intensity for each peptide.

SUMO [5] = conditions: read-out: SUMO affinity of known SUMO interacting motif; cited from earlier work
Description: To investigate the binding specificity, we tested the peptides for interaction with the structurally related small ubiquitin-like modifier (SUMO), a ubiquitin-like protein also used as posttranslational modification, but involved in different signaling pathways. SUMO binds to extended stretches of residues with an interaction motif consisting of φφXφ, often followed by negatively charged residues or phosphorylation sites, where φ represents hydrophobic residues. Thus, known SUMO binding features partly overlap the features extracted above. Fluorescently labeled SUMO was added to ...

T1 sequence (P0CH06 1-76 limits assumed): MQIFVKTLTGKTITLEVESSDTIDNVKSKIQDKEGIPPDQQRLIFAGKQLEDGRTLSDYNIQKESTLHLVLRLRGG

Substance | emission intensity of bound Cy5-ubiquitin (apparent affinity) (ubiquitin [2]) | other results
Ac-DDTLWWEDDWWDDED-NH2 [PepDWD] |  | Kd (ubiquitin [1]): 600 ± 30 µM
Ac-DDTLWWENNWWDDED-NH2 [Pep42] | increased emission intensity; also recorded: highest emission intensity | Kd (ubiquitin [1]): 1200 ± 90 µM
Ac-DLWEDDWDLWEDDWD-NH2 [PepDMD] |  | Kd (ubiquitin [1]): 480 ± 40 µM
Ac-DLWENNWDLWENNWD-NH2 [Pep43] | highest emission intensity | Kd (ubiquitin [1]): 1300 ± 120 µM
Ac-GDDTLWENNWDDEDI-NH2 [Pep1] |  | chemical shift perturbations (CSPs) induced in the HSQC spectrum of ubiquitin (ubiquitin [1]; 1 mM 15-mer peptide added to 100 µM 15N-ubiquitin (120 µM for POLIIBP and ZFB)): much larger CSPs; Kd (ubiquitin [1]): 3000 ± 200 µM
EDPDLKAAIQESLRE [Pep45, reference compound] | only weak emission intensities | Kd (ubiquitin [3]): 20 µM
GDDDLWENNWDDEDI [Pep25, 15-mer variant of Dss1 UBS1, peptide array] | increased emission intensity | 
GDDTDWENNWDDEDI [Pep8, 15-mer variant of Dss1 UBS1, peptide array] | increased emission intensity | 
GDDTEWENNWDDEDI [Pep9, 15-mer variant of Dss1 UBS1, peptide array] | increased emission intensity | 
GDDTFWENNWDDEDI [Pep5, 15-mer variant of Dss1 UBS1, peptide array] | increased emission intensity | 
GDDTLWAAAWDDEDI [Pep36, 15-mer variant of Dss1 UBS1, peptide array] | reduced binding | 
GDDTLWEDDWDDEDI [Pep20, 15-mer variant of Dss1 UBS1, peptide array] | increased emission intensity | 
GDDTLWENNWWDDED [Pep41, 15-mer variant of Dss1 UBS1, peptide array] | increased emission intensity | 
GDDTLWEPNWDDEDI [Pep40, 15-mer variant of Dss1 UBS1, peptide array] | enhanced emission | 
GDDTLWETNWDDEDI [Pep39, 15-mer variant of Dss1 UBS1, peptide array] | enhanced emission; also recorded: increased ubiquitin affinity | 
GDDTLWEVNWDDEDI [Pep38, 15-mer variant of Dss1 UBS1, peptide array] | enhanced emission; also recorded: increased ubiquitin affinity | 
GDDTLWPNPWDDEDI [Pep37, 15-mer variant of Dss1 UBS1, peptide array] | no or negative effects on binding | 
GDDTWWENNWDDEDI [Pep11, 15-mer variant of Dss1 UBS1, peptide array] | increased emission intensity | 
GEAEERVVVISSSED [Pep48] |  | emission intensity of bound Cy5-SUMO (apparent affinity) (SUMO [4]): lower-than-average affinity; Kd (SUMO [5]): ~100 µM
IQEDWELAERLQREE [Pep46, reference compound] | only weak emission intensities | Kd (ubiquitin [3]): 100 µM
LKVDVIDLTIESSSD [Pep47] |  | emission intensity of bound Cy5-SUMO (apparent affinity) (SUMO [4]): high apparent affinity; Kd (SUMO [5]): 1 µM
